Laboratory results taken from patent publication US9980943B2, “Methods of treating muscular dystrophy” (BOARD OF REGENTS OF THE NEVADA SYSTEM OF HIGHER EDUCATION, …, priority 2013, dated 2018).

Experiments:
Assay type in all cases: cell-based, mouse
[1] = test system: α7 integrin (LacZ reporter in α7βgal+/− myoblasts); assay: Myoblast α7+/LacZ integrin FDG assay (Burkin assay in myoblasts, 96-well); settings: α7+/LacZ myoblasts, 96-well
[2] = test system: α7 integrin (LacZ reporter in α7+/LacZ myotubes); assay: Myotube α7 integrin FDG assay (Burkin assay in myotubes, 96-well); settings: myotubes
[3] = test system: β-galactosidase in CMV-LacZ C2C12 myoblasts; assay: CMV-LacZ secondary screen in C2C12 myoblasts (β-Gal stabilizing assay); settings: CMV-LacZ C2C12 myoblasts
From the text: In order to determine compounds that acted to stabilize β-gal in myogenic cells, a CMV-LacZ C2C12 cell line was used in a secondary screen. The EGFP gene from the pEGFP (Clontech) vector was replaced by LACZ PCR product with digests of the vector/PCR product performed using EcoRI (NEB) and NotI (NEB) and ligated using T4 DNA Ligase (NEB) following standard procedures to produce the CMV-LACZ vector. The LACZ gene was generated by PCR from the pBK-RSV (Stratagene) vector using primers LACZ EcoRI F- and LACZ NotI R-. The CMV-LACZ vector was then digested with AfIII (NEB) to linearize the construct, which was then transfected in C2C12 myoblasts using Lipofectamine 2000 (Invitrogen) following the manufacturer's instructions. […] Clonal lines were selected and screened for βgal levels using the myoblast FDG assay.
The assays were used the original 96-well format and new dose-response curves for myoblasts (N=3-6 replicates for each data point), myotubes (N=3-6 replicates for data point), and CMV-LacZ secondary assay (N=2 replicates for each data point) using concentrations of 0.5 μM, 1 μM, 5 μM, 10 μM, 20 μM, and 40 μM (Tables 9-16).

[4] = test system: β-galactosidase in CMV-LacZ C2C12 myotubes; assay: CMV-LacZ secondary screen in C2C12 myotubes (β-Gal stabilizing assay); settings: C2C12 CMV-LacZ myotubes, fold relative to DMSO
How it was run: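 Stable CMV-LacZ C2C12 clone; six-point curve 0.5–40 μM; duplicates.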

SMILES	Burkin Assay in Myoblasts, signal relative to DMSO ([1]; 0.5 uM)	Burkin Assay in Myoblasts, signal relative to DMSO ([1]; 1 uM)	Burkin Assay in Myoblasts, signal relative to DMSO ([1]; 5 uM)	Burkin Assay in Myoblasts, signal relative to DMSO ([1]; 10 uM)	Burkin Assay in Myoblasts, signal relative to DMSO ([1]; 20 uM)	Burkin Assay in Myoblasts, signal relative to DMSO ([1]; 40 uM)	Burkin Assay in Myotubes, α7 integrin LacZ reporter signal relative to DMSO ([2]; 0.5 uM)	Burkin Assay in Myotubes, α7 integrin LacZ reporter signal relative to DMSO ([2]; 1 uM)	Burkin Assay in Myotubes, α7 integrin LacZ reporter signal relative to DMSO ([2]; 5 uM)	Burkin Assay in Myotubes, α7 integrin LacZ reporter signal relative to DMSO ([2]; 10 uM)	Burkin Assay in Myotubes, α7 integrin LacZ reporter signal relative to DMSO ([2]; 20 uM)	Burkin Assay in Myotubes, α7 integrin LacZ reporter signal relative to DMSO ([2]; 40 uM)	CMV-LACZ in Myoblasts (β-galactosidase activity relative to DMSO) ([3]; 0.5 uM)	CMV-LACZ in Myoblasts (β-galactosidase activity relative to DMSO) ([3]; 1 uM)	CMV-LACZ in Myoblasts (β-galactosidase activity relative to DMSO) ([3]; 5 uM)	CMV-LACZ in Myoblasts (β-galactosidase activity relative to DMSO) ([3]; 10 uM)	CMV-LACZ in Myoblasts (β-galactosidase activity relative to DMSO) ([3]; 20 uM)	CMV-LACZ in Myoblasts (β-galactosidase activity relative to DMSO) ([3]; 40 uM)	CMV-LACZ in Myotubes, signal relative to DMSO ([4]; 0.5 uM)	CMV-LACZ in Myotubes, signal relative to DMSO ([4]; 1 uM)	other results
O=CN1CCN(C(=O)CC(c2ccccc2)c2cc(Br)ccc2O)CC1 (stereo not drawn) [MLS001000874-01]	1.175	1.033	1.077	0.8677	1.007	0.9545	0.9357	0.8646	1.0731	0.9216	0.9266	0.8181	1.1029	1.0442	0.8886	1.0295	1.0556	1.1100	1.0943	1.1590	CMV-LACZ in Myotubes, signal relative to DMSO ([4]; 5 uM): 1.1124; CMV-LACZ in Myotubes, signal relative to DMSO ([4]; 10 uM): 0.9960; CMV-LACZ in Myotubes, signal relative to DMSO ([4]; 20 uM): 1.1484; CMV-LACZ in Myotubes, signal relative to DMSO ([4]; 40 uM): 1.0947
CC(=O)Nc1ccc(NC(=O)C/C(C)=N/NC(=O)COc2cc(C)c(Br)cc2Br)cc1 [MLS000912562-01]	0.7697	0.929	1.039	0.9253	0.6911	0.5552	0.898	0.8582	0.929	0.8748	0.8872	0.7024	0.8680	0.9150	0.7103	0.6246	1.0302	0.8747	1.0905	0.8924	CMV-LACZ in Myotubes, signal relative to DMSO ([4]; 5 uM): 0.9602; CMV-LACZ in Myotubes, signal relative to DMSO ([4]; 10 uM): 1.1674; CMV-LACZ in Myotubes, signal relative to DMSO ([4]; 20 uM): 1.2090; CMV-LACZ in Myotubes, signal relative to DMSO ([4]; 40 uM): 1.2780
COc1ccccc1CC(=O)Nc1cc(S(=O)(=O)N2CCOCC2)ccc1N1CCOCC1 [MLS002170630-01]	1.122	0.9708	1.0982	1.216	0.7825	0.6735	1.03	1.075	0.9697	1.123	0.8857	1.0714	0.9954	0.8054	0.9890	0.9628	0.8233	0.7387	0.8136	1.0036	CMV-LACZ in Myotubes, signal relative to DMSO ([4]; 5 uM): 1.2068; CMV-LACZ in Myotubes, signal relative to DMSO ([4]; 10 uM): 0.9248; CMV-LACZ in Myotubes, signal relative to DMSO ([4]; 20 uM): 0.9710; CMV-LACZ in Myotubes, signal relative to DMSO ([4]; 40 uM): 0.8580
CCOc1ccccc1NC(=O)c1cccc2c1C(=O)N(C1CCCCC1)C2 [MLS000912726-01]	1.279	1.177	0.9838	1.02	1.1258	1.022	1.066	0.8889	0.8818	0.886	0.8231	0.8237	1.1004	0.9692	1.0182	1.0325	1.0257	1.0643	0.8527	0.9264	CMV-LACZ in Myotubes, signal relative to DMSO ([4]; 5 uM): 0.9111; CMV-LACZ in Myotubes, signal relative to DMSO ([4]; 10 uM): 1.1041; CMV-LACZ in Myotubes, signal relative to DMSO ([4]; 20 uM): 1.2060; CMV-LACZ in Myotubes, signal relative to DMSO ([4]; 40 uM): 1.0150
